Test results: patent US9499601B2, “Molecular probe for sphingolipids” (Agency for Science, Technology and Research, priority 2006, dated 2016)
Where no end group is shown, it is not given here.

Columns and labels:
[1] = Lipid-protein overlay (fat blot); format: binding; conditions: Sphingostrips, relatively low amounts of lipids (100 nmole equivalents)
[2] = system: detergent resistant membrane fractions from human neuroblastomas, SH-SY5Y; assay: Dot blot binding to isolated DRM density-gradient fractions; conditions: fractions 1-12, 1 top (detergent insoluble)
neuroblastoma cells = assay: Live-cell uptake after glycosphingolipid depletion with Fumonisin B1; format: cell-based, human; conditions: 10 μM FB1
[3] = system: liposomes of raft-like composition (SM:Ch:POPC) with or without GM1, GD1a, GCB; POPC liposomes; assay: Liposome binding, fluorescence retained after centrifugal filtration; conditions: control
SH-SY5Y neuroblastoma = assay: Live-cell uptake under cholesterol depletion (MβCD); format: cell-based, human; conditions: only after 2 h of cholesterol depletion
[4] = Lipid-protein overlay (fat blot); format: binding
[5] = Lipid-protein overlay (fat blot); format: binding; remark: listed apart in the source
[6] = Lipid-protein overlay (fat blot); format: binding, bovine
[7] = Lipid-protein overlay (fat blot); format: binding; remark: listed apart in the source
[8] = system: Drosophila c6 neuronal cells; assay: Labelling of Drosophila c6 neuronal cells with SBD, SBD* and SBD^scr peptides; format: cell-based
Drosophila c6 cells = assay: Cholesterol depletion measured with Amplex Red Cholesterol Assay kit; format: cell-based; conditions: for reduction of cholesterol: 10 mM, 30 min, whole cell lysates
Description: Cholesterol depletion and overload: Cells were incubated in 4 mM or 10 mM Methyl-β-cyclo-dextrin (MβCD) (Sigma, USA) for 30 min in serum-free medium, and washed. AMPLEX RED™ Cholesterol Assay kit (Invitrogen) was used to measure cholesterol concentrations in cell extracts before OPTIPREP™ gradient formation and later on DRM fractions generated. For cholesterol excess, 10 mM MβCD-cholesterol-complexes were prepared as described previously and incubated with cells at 25° C. for 30 min before labelling. After treatment cells were further incubated in complete medium with FBS.
Drug treatments: For cholesterol depletion cells were incubated in 10 mM Methyl-b-cyclo-dextrin (MbCD) (Sigma, USA) for 30 min in serum-free medium, and washed. AMPLEX RED™ Cholesterol Assay kit (Invitrogen) was used to measure cholesterol concentrations in cell extracts before OPTIPREP™ gradient formation and later on DRM fractions generated.
Treatments that inhibit cholesterol synthesis or that remove cholesterol from membranes are known to disrupt lipid rafts. Methyl-β-cyclo-dextrin (MβCD) was used to deplete Drosophila c6 (FIG. 13) and neuroblastoma cells (data not shown) of cholesterol and related sterols (see Methods), and looked at the effect on SBD binding. First, the effectiveness of the MβCD treatment was tested by measuring total cholesterol levels using the AMPLEX RED™ kit (Invitrogen). On c6 cells, cholesterol was reduced by 42% after 30 min, and the distribution of the remaining cholesterol became more uniform across the density gradient (FIG. 13C).

[9] = peptide at higher concentrations (20 μM)
[10] = peptide at higher concentrations (20 μM), listed as mutated peptide
[11] = spotted strips, 1000-2000 nmole equivalents lipid
[12] = spotted strips, 1000-2000 nmole equivalents lipid, listed as scrambled version of the peptide

Molecule: CtxB [reference compound]
- interaction with GM1 [1]: recognize
- binding to density-gradient fractions (dot blot) [2]: typical two-peak distribution
- uptake after Fumonisin B1 (FB1) treatment (neuroblastoma cells): not affected

Molecule: CtxB-Alexa594
- retention on GM1 liposomes compared with GD1a or no glycolipid [3]: retained more strongly
- uptake under cholesterol depletion (SH-SY5Y neuroblastoma): reduced rate of uptake

Molecule: DAEFAHDSGAEVHHQELVFFAEDVG [SBD**-myc]
- interaction with GD1a ([4]; peptide at 5 μM): fails to show any interaction
- interaction with GD1a [4, 9]: only weakly interacts
- interaction with GD1a [4, 10]: bound very weakly
- interaction with GD1b ([5]; peptide at low concentrations): very weakly
- interaction with galactocerebrosides ([6]; peptide at low concentrations): interacted
- interaction with SM ([7]; peptide at 5 μM): fails to show any interaction
- interaction with SM [7, 9]: fails to show any interaction
- interaction with SM [7, 10]: not

Molecule: FYHDESEFGHAVEQFGRDVEAVHDL (not fully specified; also: fluorophore, identity and site not given here) [SBD^scr]
- internalized punctae (number and intensity) ([8]; Oregon Green conjugates, 10 μM each): much reduced
- concentration needed for binding to cells ([8]; c6 cells (FIG. 1B)): ≥ 50 µM

Molecule: FYHDESEFGHAVEQFGRDVEAVHDL [SBD-scr-myc]
- interaction with GM1 ([1]; listed as SBD scr-myc): interact
- interaction with GM1 ([1]; listed as SBD-scr): showed signal
- interaction with GD1a [4, 11]: bind
- interaction with GD1a [4, 12]: interacted approximately as well
- interaction with GD1b [5, 11]: bind
- interaction with GD1b [5, 12]: interacted approximately as well
- interaction with galactocerebrosides [6, 11]: bind
- interaction with sphingomyelin [7, 11]: interacted approximately as well

Molecule: Methyl-β-cyclo-dextrin [MβCD]
- reduction of cholesterol (Drosophila c6 cells): 42%
- reduction of cholesterol (Drosophila c6 cells; listed as M[…]CD): over 40%
- depletion of total cholesterol (Drosophila c6 cells; Example 1): 40%

Molecule: Transferrin-Alexa594: marker of clathrin-mediated uptake
- uptake after Fumonisin B1 (FB1) treatment (neuroblastoma cells): not significantly altered
- uptake after Fumonisin B1 (FB1) treatment (neuroblastoma cells; listed as Tfr): essentially unaltered

B1: Lysenin: sphingomyelin-binding protein toxin from earthworm (protein, UniProt O18423 1-297, looked up)
Lysenin: MSAKAAEGYEQIEVDVVAVWKEGYVYENRGSTSVDQKITITKGMKNVNSETRTVTATHSIGSTISTGDAFEIGSVEVSYSHSHEESQVSMTETEVYESKVIEHTITIPPTSKFTRWQLNADVGGADIEYMYLIDEVTPIGGTQSIPQVITSRAKIIVGRQIILGKTEIRIKHAERKEYMTVVSRKSWPAATLGHSKLFKFVLYEDWGGFRIKTLNTMYSGYEYAYSSDQGGIYFDQGTDNPKQRWAINKSLPLRHGDVVTFMNKYFTRSGLCYDDGPATNVYCLDKREDKWILEVVG
- interaction with Sphingomyelin (spot 5) ([7]; Sphingostrips): recognize
- binding to density-gradient fractions (dot blot) [2]: bound to non-DRM fractions
